What all share (assay type): cell-based
In assay [1] the target is T1, AhR (Homo sapiens, UniProt P35869).
T1 construct: host or cells: HepG2
T1 sequence (P35869 11-848): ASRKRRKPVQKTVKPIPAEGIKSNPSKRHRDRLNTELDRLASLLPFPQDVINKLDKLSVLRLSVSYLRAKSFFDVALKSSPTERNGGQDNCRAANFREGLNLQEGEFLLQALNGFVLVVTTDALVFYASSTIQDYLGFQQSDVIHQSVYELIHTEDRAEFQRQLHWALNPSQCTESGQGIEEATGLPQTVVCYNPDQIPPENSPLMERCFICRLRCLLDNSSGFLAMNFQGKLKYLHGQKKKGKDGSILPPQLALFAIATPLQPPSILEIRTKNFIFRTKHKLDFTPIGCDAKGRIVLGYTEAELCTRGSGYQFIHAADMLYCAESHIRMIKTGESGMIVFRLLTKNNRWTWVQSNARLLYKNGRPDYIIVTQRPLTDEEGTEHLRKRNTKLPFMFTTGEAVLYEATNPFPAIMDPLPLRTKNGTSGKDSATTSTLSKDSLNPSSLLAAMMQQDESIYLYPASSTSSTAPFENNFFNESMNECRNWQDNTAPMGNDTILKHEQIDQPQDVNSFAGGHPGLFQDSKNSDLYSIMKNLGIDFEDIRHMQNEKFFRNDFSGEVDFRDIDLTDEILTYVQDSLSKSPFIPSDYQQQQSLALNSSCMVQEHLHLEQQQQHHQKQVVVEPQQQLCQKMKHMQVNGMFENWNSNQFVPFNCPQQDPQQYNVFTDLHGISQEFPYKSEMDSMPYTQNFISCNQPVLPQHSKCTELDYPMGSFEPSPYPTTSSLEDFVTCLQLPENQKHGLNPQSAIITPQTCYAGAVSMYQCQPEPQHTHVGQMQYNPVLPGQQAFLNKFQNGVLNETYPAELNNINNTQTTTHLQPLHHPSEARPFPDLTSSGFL
Kind of assay: In vitro assay 3: XRE-luciferase reporter assay, agonism in human cell line (HepG2). The settings on record: HepG2 XRE-Luc, tryptophan free medium, test compound alone, 6 hours. An excerpt: (§1) In Vitro XRE-Luciferase Reporter Assay (In Vitro Assay 1, 2, 3)
(§2) AhR activation leads the induction of target gene expression such as CYP1A1 and CYP1B1 by AhR binding to AhR-responsive DNA elements also known as xenobiotics responsive elements (XRE). The assay for measuring AhR activity herein is the luciferase assay using cell lines transfected with luciferase reporter plasmid containing XREs at the upstream of the reporter gene. Cells transfected with XRE-luciferase reporter (XRE-Luc) plasmid drive luciferase activity reflecting activation and inhibition of AhR in the cells. In addition to transfection with XRE-reporter vector, cells were co-transfected with Nano-luciferase reporter gene construct (Nano-Luc) containing constitutively active promoter as internal control. Kynurenine (an endogenous AhR agonist) was used to stimulate cells to test antagonistic properties of the compounds. The half-maximal inhibitory concentration (IC50) or half-maximal effective concentration (EC50) value was calculated using nonlinear regression (four parameters) with Prism8.0 software (GraphPad).
In Vitro Assay 3: Agonism in Human Cell Line
HepG2 (human hepatoma cell line) cells co-transfected with XRE-Luc and Nano-Luc plasmids were plated in tryptophan free medium containing 1% of dialyzed fetal bovine serum and incubated overnight at 37° C. in a CO2 incubator. After 24 hours, cells were treated for 6 hours with test compounds or not. Firefly luciferase and Nano-luciferase activity was measured using Nano-glo Luciferase kit (Promega) and relative luciferase activity (Firefly/Nano-Luc) was used to calculate EC50 values. As a positive control, cells were incubated with TCDD. (EC50 Values are grouped as A, B, C and D, whereby A: EC50<0.1 μM; B: 0.1<EC50<1.0 μM; C: 1.0<EC50<10 μM; D: EC50>10 μM)
(A reporter such as luciferase makes a cellular process visible.)

In assay [2] the target is T2, AhR (Mus musculus, UniProt P30561).
T2 sequence (P30561 1-848): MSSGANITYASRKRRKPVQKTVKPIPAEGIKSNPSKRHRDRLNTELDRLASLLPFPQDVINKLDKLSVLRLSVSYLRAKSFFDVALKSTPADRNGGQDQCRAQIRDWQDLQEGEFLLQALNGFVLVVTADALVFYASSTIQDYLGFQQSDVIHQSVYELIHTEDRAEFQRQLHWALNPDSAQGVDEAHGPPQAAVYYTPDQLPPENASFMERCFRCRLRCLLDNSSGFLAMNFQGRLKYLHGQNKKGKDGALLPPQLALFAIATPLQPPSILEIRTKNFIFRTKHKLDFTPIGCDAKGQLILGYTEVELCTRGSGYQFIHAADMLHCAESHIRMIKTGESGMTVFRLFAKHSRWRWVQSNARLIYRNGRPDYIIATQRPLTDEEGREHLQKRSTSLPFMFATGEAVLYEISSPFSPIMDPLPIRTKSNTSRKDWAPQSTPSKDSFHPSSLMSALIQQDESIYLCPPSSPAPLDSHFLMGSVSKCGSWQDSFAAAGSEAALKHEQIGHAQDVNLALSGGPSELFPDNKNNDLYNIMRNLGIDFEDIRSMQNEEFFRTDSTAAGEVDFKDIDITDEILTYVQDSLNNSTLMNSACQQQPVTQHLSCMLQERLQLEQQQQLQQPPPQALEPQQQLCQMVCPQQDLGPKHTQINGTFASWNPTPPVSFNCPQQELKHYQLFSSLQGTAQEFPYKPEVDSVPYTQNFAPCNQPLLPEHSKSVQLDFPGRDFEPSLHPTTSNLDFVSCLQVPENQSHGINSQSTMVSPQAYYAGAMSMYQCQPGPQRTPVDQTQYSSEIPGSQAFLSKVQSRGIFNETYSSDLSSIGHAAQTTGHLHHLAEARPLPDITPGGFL
Put plainly: In vitro assay 2: XRE-luciferase reporter assay, antagonism in mouse cell line (Hepa1c1c7). The settings on record: Hepa1c1c7 XRE-Luc, 6 hours.
Source text: as §1, §2
In Vitro Assay 2: Antagonism in Mouse Cell Line
Hepa1c1c7 (murine liver cancer cell line) cells co-transfected with XRE-Luc and Nano-Luc plasmids were plated in complete medium and incubated overnight at 37° C. in a CO2 incubator. Following incubation, cells were treated with AhR activating ligands such as kynurenic acid, kynurenine(#) with or without test compounds for 6 hours. Firefly luciferase and Nano-luciferase activity was measured using Nano-glo Luciferase kit (Promega) and relative luciferase activity (Firefly/Nano-Luc) was used to calculate IC50 values. The relative luciferase activity was further normalized with agonists alone group as the maximum control and the vehicle group as the minimum control. (IC50 Values are grouped as A, B, C and D, whereby A: IC50<0.01 μM; B: 0.01<IC50<0.1 μM; C: 0.1<IC50<1.0 μM; D: IC50>1.0 μM)

Assay [3] addresses T1, AhR. Kind of assay: In vitro assay 4: endogenous AhR activity assay (CYP1A1 and CYP1B1 mRNA, qRT-PCR, HepG2 cells). The settings on record: TCDD 10 nM with compound 123 nM, 4 hours, mRNA relative to β-actin, read-out: CYP1A1 (% Inhibition). The procedure:
In Vitro Assay 4: Endogenous AhR Activity Assay
HepG2 cells were seeded in 12-well plate (3×10^5 cells/well). A day after seeding, the cells were treated with TCDD (10 nM) alone or with compounds (123 nM) for 4 hours. Total RNA was extracted using Trizol (Thermo Fisher Scientific). cDNA synthesis and quantitative RT-PCR (qRT-PCR) assays were performed using PrimeScript™ RT Master Mix (TAKARA) and TB Green™ Premix Ex Taq™ II (TAKARA) in accordance with manufacturer's instruction. For the measurement of endogenous AhR activity, relative mRNA levels of CYP1A1 and CYP1B1 were quantitated relative to β(beta)-actin mRNA by the comparative Ct (ΔΔCt) method. The percent inhibitions were calculated according to: […]

The target in assay [4] is T1, AhR. Kind of assay: In vitro assay 1: XRE-luciferase reporter assay, antagonism in human cell line (HepG2). To be noted: HepG2 XRE-luciferase, cells treated with kynurenine 200 μM (no *), 6 hours; read-out: Assay 1: AhR-Luc Human Antagonism (IC50). An outline of the steps: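 HepG2 cells carrying XRE-firefly luciferase (transient or stable) plus constitutive Nano-Luc control, stimulated 6 h with kynurenine (50 or 200 μM) with or without compound. Firefly/Nano-Luc ratio normalized to kynurenine-alone (maximum) and vehicle (minimum); IC50 by four-parameter nonlinear regression.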

Setting [5] is: read-out: Assay 3: AhR-Luc Human Agonism (EC50).
Setting [6] is: read-out: Assay 3: AhR-Luc Human Agonism (EC50, nM), class in brackets.
Where [7] appears, read: AhR activating ligand such as kynurenic acid (no #).

Structures are written as SMILES. Like-named read-outs stand apart in the source and are kept apart here.

Our source for the EC50, IC50 and inhibition values is US20230147257A1 (DONG-A ST CO., LTD., priority 2020, published 2023).

As to `CC(=O)N1CCC(n2cnc3c(-c4cccnc4)nc(-c4ccc(Cl)cc4)cc3c2=O)CC1` [Example 96, 3-(1-acetylpiperidin-4-yl)-6-(4-chlorophenyl)-8-(pyridin-3-yl)pyrido[3,4-d]pyrimidin-4(3H)-one], the values for the EC50 in assay [1] (setting [5]) and in assay [1] (setting [6]) were over 30000 nM and over 10000 nM, respectively. In addition, the concentration for half-maximal inhibition (IC50) in assay [2] (setting [7]) and in assay [4] was under 0.01 µM in each case. Moreover, the inhibition at 0.123 µM in assay [3] was found to be 99.9%.

For the molecule `O=c1c2cc(-c3ccc(Cl)cc3)nc(-c3cccnc3)c2ncn1[C@H]1CC[C@H](O)CC1` [Example 56, 6-(4-chlorophenyl)-3-((1r,4r)-4-hydroxycyclohexyl)-8-(pyridin-3-yl)pyrido[3,4-d]pyrimidin-4(3H)-one], the EC50 was over 30000 nM in assay [1] (setting [5]) and over 10000 nM in assay [1] (setting [6]). Also, the IC50 in assay [2] (setting [7]) and in assay [4] was under 0.01 µM each time. Besides, the inhibition at 0.123 µM in assay [3] was found to be 101%.

As for `CC(CO)n1cnc2c(-c3cccnc3)nc(-c3ccc(N4CCOCC4)cc3)cc2c1=O` (stereo not drawn) [Example 75, 3-(1-hydroxypropan-2-yl)-6-(4-morpholinophenyl)-8-(pyridin-3-yl)pyrido[3,4-d]pyrimidin-4(3H)-one], the EC50 in assay [1] (setting [5]) is over 30000 nM; in assay [1] (setting [6]), over 10000 nM. Moreover, the IC50 was 0.01 to 0.1 µM in assay [2] (cells treated with kynurenine (#)) and under 0.01 µM in assay [4]. For the same molecule, in assay [3], the inhibition at 0.123 µM was 101%.

Broadly, the EC50 is the midpoint of the concentration-response curve. What is called IC50 is the concentration needed to halve the response being measured. The term inhibition denotes the change of the read-out against control, counted positive when it falls.
